# Values of other authors, collected in patent US20110152177A1, “Functional Feed Composition” (priority 2008, published 2011).
# Experiments:
# [1] = tested on: Vibrio anguillarium; conditions: lower and higher doses reported to increase mortalities
# [2] = tested on: V. anguillarum; conditions: oral administration of PG at 0.2 and 2 mg/kg diet
substance,measurement,setting,value
peptidoglycan,optimal dose of peptidoglycan in diet,[1],4 g kg^−1 diet
same,disease resistance,[2],enhances the disease resistance
